Laboratory results reported in US8008291B2 (Mimetica Pty Ltd, priority 2008, dated 2011).

Biological target: T1, human MC5R (hMC5R) (Homo sapiens, UniProt P33032)
T1 construct: purchased Perkin Elmer RBXMC5M400UA
Assay: Human MC5R radioligand binding assay (membranes, [125I] NDP-MSH displacement)
Conditions: hMC5R binding; tested as trifluoroacetate or hydrochloride salts, or free bases; read-out: MC5R radioligand IC50
In short: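 Displacement of [125I]NDP-MSH (radioiodinated in house, HPLC-purified) from hMC5R membranes by test compound measured after 1 hr incubation at 37° C.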

T1 sequence (P33032 whole entry): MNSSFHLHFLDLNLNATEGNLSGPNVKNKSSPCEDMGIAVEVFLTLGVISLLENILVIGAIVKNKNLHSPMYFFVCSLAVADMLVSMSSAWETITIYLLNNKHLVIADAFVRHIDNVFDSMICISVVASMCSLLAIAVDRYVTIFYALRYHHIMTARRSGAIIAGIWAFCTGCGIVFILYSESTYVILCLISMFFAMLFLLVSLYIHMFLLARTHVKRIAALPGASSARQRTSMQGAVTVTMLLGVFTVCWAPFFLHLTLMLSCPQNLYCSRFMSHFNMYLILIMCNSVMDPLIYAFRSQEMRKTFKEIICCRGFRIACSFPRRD

Row | Compound | IC50 [nM]
1 | C#Cc1cc(C#C)cc(CN2CC[C@@H](CNC(=O)c3ccc4ccccc4c3)N[C@@H](CCCN)C2=O)c1 [Compound 360, N-(((3S,5S)-3-(3-aminopropyl)-1-(3,5-diethynylbenzyl)-2-oxo-1,4-diazepan-5-yl)methyl)-2-naphthamide] | < 1000
2 | CC[C@@H](CN1CC[C@@H](CNC(=O)/C=C/c2ccc(Cl)cc2)N[C@@H](CCN2CCCCC2)C1=O)c1ccccc1 [Compound 364, (E)-3-(4-chlorophenyl)-N-(((3S,5S)-2-oxo-1-((R)-2-phenylbutyl)-3-(2-(piperidin-1-yl)ethyl)-1,4-diazepan-5-yl)methyl)acrylamide] | < 100
3 | O=C(NC[C@@H]1CCN(CC(c2ccccc2)c2ccccc2)C(=O)[C@H](CCN2CCCCC2)N1)OCc1ccccc1 [Compound 412, benzyl ((3S,5S)-1-(2,2-diphenylethyl)-2-oxo-3-(2-(piperidin-1-yl)ethyl)-1,4-diazepan-5-yl)methylcarbamate] | < 1000
4 | NCCCC[C@@H]1N[C@H](CNC(=O)[C@@H]2Cc3ccccc3CN2)CCN(CC(c2ccccc2)c2ccccc2)C1=O [Compound 127, (S)—N-(((3S,5S)-3-(4-aminobutyl)-1-(2,2-diphenylethyl)-2-oxo-1,4-diazepan-5-yl)methyl)-1,2,3,4-tetrahydroisoquinoline-3-carboxamide] | < 10000
5 | CCN(CC)CC[C@@H]1N[C@H](CNC(=O)c2ccc3ccccc3c2)CCN(CC(c2ccccc2)c2ccccc2)C1=O [Compound 362, N-(((3S,5S)-3-(2-(diethylamino)ethyl)-1-(2,2-diphenylethyl)-2-oxo-1,4-diazepan-5-yl)methyl)-2-naphthamide] | < 100
6 | CCCOC(=O)N[C@@H](Cc1ccc2ccccc2c1)[C@@H]1CCN(CC(c2ccccc2)c2ccccc2)C(=O)[C@H](CCCNC(=N)N)N1 [Compound 83, propyl (S)-1-((3S,5S)-1-(2,2-diphenylethyl)-3-(3-guanidinopropyl)-2-oxo-1,4-diazepan-5-yl)-2-(naphthalen-2-yl)ethylcarbamate] | < 1000
7 | NCCC[C@@H]1N[C@H](CNC(=O)c2ccc3ccccc3c2)CCN(Cc2ccccc2Cl)C1=O [Compound 317, N-(((3S,5S)-3-(3-aminopropyl)-1-(2-chlorobenzyl)-2-oxo-1,4-diazepan-5-yl)methyl)-2-naphthamide] | < 10000
8 | CC[C@H](CN1CC[C@@H](CNC(=O)c2ccc3cc(Cl)ccc3c2)N[C@@H](CCCNC(N)=O)C1=O)c1ccccc1 [Compound 490, 6-chloro-N-(((3S,5S)-2-oxo-1-((S)-2-phenylbutyl)-3-(3-ureidopropyl)-1,4-diazepan-5-yl)methyl)-2-naphthamide] | < 1000
9 | CC[C@H](CN1CC[C@@H](CNC(=O)c2ccccc2-c2ccc(Cl)cc2)N[C@@H](CCN2CCCCC2)C1=O)c1ccccc1 [Compound 497, 4′-chloro-N-(((3S,5S)-2-oxo-1-((S)-2-phenylbutyl)-3-(2-(piperidin-1-yl)ethyl)-1,4-diazepan-5-yl)methyl)biphenyl-2-carboxamide] | < 100
10 | CC[C@H](CN1CC[C@@H](CNC(=O)c2ccc(Cl)c(Cl)c2)N[C@@H](CCN(CC)CC)C1=O)c1ccccc1 [Compound 426, 3,4-dichloro-N-(((3S,5S)-3-(2-(diethylamino)ethyl)-2-oxo-1-((S)-2-phenylbutyl)-1,4-diazepan-5-yl)methyl)benzamide] | < 100
11 | CC1CC(C)CC(CN2CC[C@@H](CNC(=O)c3ccc4ccccc4c3)N[C@@H](CCN)C2=O)C1 (stereo partly drawn) [Compound 376, N-(((3S,5S)-3-(2-aminoethyl)-1-((3,5-dimethylcyclohexyl)methyl)-2-oxo-1,4-diazepan-5-yl)methyl)-2-naphthamide] | < 1000
12 | CC[C@H](CN1CCC(CNC(=O)c2ccc3cc(Cl)ccc3c2)NC(C2CCNCC2)C1=O)c1ccccc1 (stereo partly drawn) [Compound 447, (S)-6-chloro-N-((2-oxo-1-(2-phenylbutyl)-3-(piperidin-4-yl)-1,4-diazepan-5-yl)methyl)-2-naphthamide] | < 100
13 | O=C(/C=C/c1ccc(Cl)cc1)NC[C@@H]1CCN(CC(c2ccccc2)c2ccccc2)C(=O)[C@H](CNC(=O)C2CCCCC2)N1 [Compound 402, N-(((2S,7S)-7-(((E)-3-(4-chlorophenyl)acrylamido)methyl)-4-(2,2-diphenylethyl)-3-oxo-1,4-diazepan-2-yl)methyl)cyclohexanecarboxamide] | < 10000
14 | CCC(C)(CC)CN1CC[C@@H](CNC(=O)c2ccc3cc(Cl)ccc3c2)N[C@@H](CCN)C1=O [Compound 512, N-(((3S,5S)-3-(2-aminoethyl)-1-(2-ethyl-2-methylbutyl)-2-oxo-1,4-diazepan-5-yl)methyl)-6-chloro-2-naphthamide] | < 1000
15 | CC[C@H](CN1CC[C@@H](CNC(=O)c2ccc(Cl)c(Cl)c2)N[C@@H](CCN2CCCCC2)C1=O)c1ccccc1 [Compound 410, 3,4-dichloro-N-(((3S,5S)-2-oxo-1-((S)-2-phenylbutyl)-3-(2-(piperidin-1-yl)ethyl)-1,4-diazepan-5-yl)methyl)benzamide] | < 100
16 | CC1CC(C)CC(CN2CC[C@@H](CNC(=O)/C=C/c3ccc(Cl)cc3)N[C@@H](CCN)C2=O)C1 (stereo partly drawn) [Compound 377, (E)-N-(((3S,5S)-3-(2-aminoethyl)-1-((3,5-dimethylcyclohexyl)methyl)-2-oxo-1,4-diazepan-5-yl)methyl)-3-(4-chlorophenyl)acrylamide] | < 1000
17 | O=C(NC[C@@H]1CCN(CC(c2ccccc2)c2ccccc2)C(=O)[C@H](CCCNC2CCCC2)N1)c1ccc2ccccc2c1 [Compound 246, N-(((3S,5S)-3-(3-(cyclopentylamino)propyl)-1-(2,2-diphenylethyl)-2-oxo-1,4-diazepan-5-yl)methyl)-2-naphthamide] | < 100
18 | NCCCC[C@@H]1N[C@H](CNC(=O)[C@H]2Cc3ccccc3CN2)CCN(CC(c2ccccc2)c2ccccc2)C1=O [Compound 128, (R)—N-(((3S,5S)-3-(4-aminobutyl)-1-(2,2-diphenylethyl)-2-oxo-1,4-diazepan-5-yl)methyl)-1,2,3,4-tetrahydroisoquinoline-3-carboxamide] | < 1000
19 | C=CCOC(CN1CC[C@@H](CNC(=O)c2ccc3ccccc3c2)N[C@@H](CCCNC(=N)N)C1=O)c1ccccc1 (stereo partly drawn) [Compound 292, N-(((3S,5S)-1-(2-(allyloxy)-2-phenylethyl)-3-(3-guanidinopropyl)-2-oxo-1,4-diazepan-5-yl)methyl)-2-naphthamide] | < 1000
20 | CCC(CC)CN1CC[C@@H](CNC(=O)c2ccc3ccccc3c2)N[C@@H](CCN2CCCCC2)C1=O [Compound 333, N-(((3S,5S)-1-(2-ethylbutyl)-2-oxo-3-(2-(piperidin-1-yl)ethyl)-1,4-diazepan-5-yl)methyl)-2-naphthamide] | < 100
21 | CCOc1ccc(/C=C/C(=O)NC[C@@H]2CCN(CC(c3ccccc3)c3ccccc3)C(=O)[C@H](CCCNC(=N)N)N2)cc1 [Compound 210, (E)-N-(((3S,5S)-1-(2,2-diphenylethyl)-3-(3-guanidinopropyl)-2-oxo-1,4-diazepan-5-yl)methyl)-3-(4-ethoxyphenyl)acrylamide] | < 100
22 | O=C(NCC[C@@H]1CCN(CC(c2ccccc2)c2ccccc2)C(=O)[C@H](CCN2CCCCC2)N1)c1ccc2ccccc2c1 [Compound 306, N-(2-((3S,5R)-1-(2,2-diphenylethyl)-2-oxo-3-(2-(piperidin-1-yl)ethyl)-1,4-diazepan-5-yl)ethyl)-2-naphthamide] | < 1000
23 | CC[C@H](CN1CC[C@@H](CNC(=O)c2ccc(Cl)c(Cl)c2)N[C@@H](CCN(C)C(C)(C)C)C1=O)c1ccccc1 [Compound 454, N-(((3S,5S)-3-(2-(tert-butyl(methyl)amino)ethyl)-2-oxo-1-((S)-2-phenylbutyl)-1,4-diazepan-5-yl)methyl)-3,4-dichlorobenzamide] | < 100
24 | O=C(NC[C@@H]1CCN(CC(c2ccccc2)c2ccccc2)C(=O)[C@H](CCN2CCCCC2)N1)c1cc(-c2ccc(Cl)cc2)on1 [Compound 414, 5-(4-chlorophenyl)-N-(((3S,5S)-1-(2,2-diphenylethyl)-2-oxo-3-(2-(piperidin-1-yl)ethyl)-1,4-diazepan-5-yl)methyl)isoxazole-3-carboxamide] | < 100
25 | CC[C@H](CN1CC[C@@H](CNC(=O)c2cc(-c3ccc(Cl)cc3)on2)N[C@@H](CCN2CCCCC2)C1=O)c1ccccc1 [Compound 533, 5-(4-chlorophenyl)-N-(((3S,5S)-2-oxo-1-((S)-2-phenylbutyl)-3-(2-(piperidin-1-yl)ethyl)-1,4-diazepan-5-yl)methyl)isoxazole-3-carboxamide] | < 10
26 | CC[C@H](CN1CC[C@@H](CNC(=O)/C=C/c2ccc(OC(F)(F)F)c(F)c2)N[C@@H](CCN2CCCCC2)C1=O)c1ccccc1 [Compound 539, (E)-3-(3-fluoro-4-(trifluoromethoxy)phenyl)-N-(((3S,5S)-2-oxo-1-((S)-2-phenylbutyl)-3-(2-(piperidin-1-yl)ethyl)-1,4-diazepan-5-yl)methyl)acrylamide] | < 10
27 | CC[C@H](CN1CC[C@@H](CNC(=O)c2ccc(Cl)c(Cl)c2)N[C@@H](CCN2CCC(O)CC2)C1=O)c1ccccc1 [Compound 450, 3,4-dichloro-N-(((3S,5S)-3-(2-(4-hydroxypiperidin-1-yl)ethyl)-2-oxo-1-((S)-2-phenylbutyl)-1,4-diazepan-5-yl)methyl)benzamide] | < 100
28 | O=C1[C@H](CCN2CCCCC2)N[C@H](CN2C(=O)c3cc(Cl)c(Cl)cc3C2=O)CCN1Cc1cc(Cl)cc(Cl)c1 [Compound 535, 5,6-dichloro-2-(((3S,5S)-1-(3,5-dichlorobenzyl)-2-oxo-3-(2-(piperidin-1-yl)ethyl)-1,4-diazepan-5-yl)methyl)isoindoline-1,3-dione] | < 1000
29 | NCC[C@@H]1N[C@H](CNC(=O)CCc2ccc(Cl)cc2)CCN(CC(c2ccccc2)c2ccccc2)C1=O [Compound 392, N-(((3S,5S)-3-(2-aminoethyl)-1-(2,2-diphenylethyl)-2-oxo-1,4-diazepan-5-yl)methyl)-3-(4-chlorophenyl)propanamide] | < 10000
